As usually defined, the IC50 is the concentration at which inhibition is half-maximal.

pIC50: −log10 of the molar value. In brackets after ≈: the same amount, converted by molar mass. Like-named read-outs stand apart in the source and are kept apart here. A value given as a limit tells only on which side of the number the result lay.

Data on five compounds can be found in US4997835A, “Substituted 2-acylpyridine-α-(N)-hetarlyhydrazones and medicaments containing the same” (priority 1987, dated 1991).

Series [1] relates to Indochina W-2 (parasitic malaria strain). Briefly: Growth of malaria strain Indochina W-2. In kind it is cell-based. The note with it: for pIC50: read-out: I50; for IC90: read-out: I90. An excerpt:
(§1) Determination of the semimaximum inhibiting concentration (I50) of typical representatives of the inventive compounds for the growth of parasitic malaria strains:
(§2) The determination took place according to the standard process (cf. WHO determination process).
(§3) The process according to Example 35 was repeated with the difference that the semimaximum inhibiting concentration of combinations of the inventive compound PH 22 with (2), (3) inhibitors of dihydrofolic acid reductase, (4) inhibitors of folate synthase and dihydrofolic acid reductase and (5), (6) inhibitors of DNA-synthesis were determined.

The subject of series [2] is M. leprae. Briefly: Propagation of M. leprae in mouse paws. Format: in vivo. On the procedure:
The therapeutic action was determined as a reduction of the number of acid-resistant bacteria in the mouse paw according to C. C. Shepard, J. Experim. Met., 112, p. 445, 1960.
It is possible to detect the synergistic effect of the combinations, even under in vivo conditions.

A further series has as its system Mycobacterium lufu. Briefly: Minimum inhibiting concentration, M. lufu L 209. Format: cell-based. The note with it: Mycobacterium lufu.
The test system of series [3] is Sierra Leone D-6 (parasitic malaria strain). Briefly: Growth of malaria strain Sierra Leone D-6. Format: cell-based. The settings on record: for pIC50: read-out: I50; for IC90: read-out: I90.
Excerpt: as §1, §2, §3

The conditions of series [4]: mouse, in vivo. On the procedure: (§4) The acute toxicity after a single administration of PH 22, pyridine-2-aldehyde-thiosemicarbazone (Py-2-TSC), as well as Conteben (thiacetazone, 4-acetylaminobenzaldehyde-thiosemicarbazone) was determined according to H. J. Hapke, Toxikologie fur Veterinarmediziner, F. Enke Verlag, Stuttgart 1975. The test animals used were Wistar rats and NMRI white mice.

The subject of series [5] is Mycobacterium tuberculosis H 37 RV. Briefly: Minimum inhibiting concentration, M. tuberculosis H37RV. In kind it is cell-based. The settings on record: Mycobacterium tuberculosis; M. tub. H37RV. On the procedure:
The minimum inhibiting concentration of the commercially available and inventive substances given in Table 2 was determined according to the known standard process ("Methods for sensitivity testing of bacterial infectious germs", DIN 58940, part 5).
The determination was carried out on the following bacterial cultures:
2. Mycobacterium tuberculosis H 37 RV, FIB 2-85 JS
For culturing the bacterial cultures use was made of nutrient substrates according to Gottsacker and Lowenstein Jensen and culture media according to Lockemann or Dubos-Davis (cf. "Detection processes for mycobacteria from test material, III, culture medium formulations for culturing tuberculosis bacteria", 1978, Publisher: Deutsches Zentralkomitee zur Bekampfung der Tuberculose, Poppenhusenstrasse 14c, 2000 Hamburg 60).
In each case 5×10^-3 to 5×10^-5 mg, based on the wet weight, of the mycobacterial strains were incubated in 2 ml of culture fluid (Lockemann +0.5 wt/vol. % bovine serum albumen fraction 5) at 31° C. with a graded concentration of the particular inhibitor (dilution series). The culture tubes were read off after 8 to 15 days, as a function of the bacterial strain.
The MIC is the inhibitor concentration in μMol/l at which no propagation of the sewn cells is observed.

Series [6] has as its system Mycobacterium marinum SN 1254. Briefly: Minimum inhibiting concentration, M. marinum SN1254. Format: cell-based. The settings on record: M. marin. SN1254, read-out: Minimum inhibiting concentration.
Series [7] concerns M. leprae. Briefly: In vitro propagation of M. leprae, thymidine incorporation. Format: cell-based. The note with it: Mycobacterium leprae, read-out: % Reduction Thymidine incorporation. For orientation: Uptake of a labelled nucleoside into DNA is a usual measure of proliferation.
Method: The inhibiting action was determined as a reaction of the thymidine absorption and the ATP content in M. Leprae suspensions, in the manner described by A. M. Dhople, Med. Sci. Res., 15, p.
Series [8] concerns Mycobacterium smegmatis ATCC 607. Briefly: Minimum inhibiting concentration, M. smegmatis ATCC 607. In kind it is cell-based. The settings on record: Mycolicibacterium smegmatis, ATCC607; M. smegm. ATCC 607; read-out: Minimum inhibiting concentration.
The test system of series [9] is human mammary tumour cell line MDA-MB231. Briefly: Inhibition of thymidine incorporation into DNA. The settings on record: MDA-MB-231, read-out: 50% Inhibition of thymidine incorporation. In kind it is cell-based. The protocol: (§5) The semimaximum inhibition of cellnumber increase and thymidine incorporation into DNA was determined on the […], human mammary tumour cell line MDA-MB231 (cf. H. D. Soule et al, J. Nat. Cancer Inst., 51, p.1409, 1973) according to the method described by H. Seidenberger, G. Kranzfelder, S. Wappes, H. Schonenberger, W. Beck and M. Girth, Arch. Pharm. 314, 955, 1981 and M. Lippman, M. E. Monaco and G. Bolan, Cancer Res. 37, 1901, 1977.

The nature of another series: in vivo. The settings on record: sc. The protocol: as §4
Series [10] relates to Mycobacterium avium SN 304. Briefly: Minimum inhibiting concentration, M. avium SN 304. Format: cell-based. The settings on record: SN304, M. avium SN 304, read-out: Minimum inhibiting concentration.
Series [11] relates to human mammary tumour cell line MDA-MB231. Briefly: Inhibition of cellnumber increase. Format: cell-based. The settings on record: MDA-MB-231, read-out: 50% Inhibition of cellnumber increase, I50. On the procedure: as §5
For series [12], the system named is Mycobacterium avium Patient Strain (Birk). Briefly: Minimum inhibiting concentration, M. avium Patient Strain (Birk). In kind it is cell-based. The note with it: Mycobacterium avium; M. avium Patient str.; read-out: Minimum inhibiting concentration.
The conditions of series [13]: Mouse i.p.; Cancer Res. 25, 1454 (1965); cited from earlier work.
The conditions of series [14]: K. C. Agrawal et al, Biochem. Pharmacol. 1974; cited from earlier work.
The test system of the next series is lymphatic leukaemia P388. The settings on record: C. Pellerano et al, Il Farmaco 1985; cited from earlier work.
Where [15] appears, read: read-out: IC50 in the case of combinations.

Consider `Clc1cc(NN=Cc2ccccn2)ncn1` [PH 22-26, pyridine-2-aldehyde-6'-chloro-4'-pyrimidylhydrazone], for which the results for the pIC50 in series [1] and in series [3] were 5.46 and 5.70, respectively. For the same compound, the IC90 came to 6.2 µM in [1] and 3 µM in series [3]. Further, the “% Inhibition of propagation of M. leprae in mouse paws” value in the series on M. leprae [2] (0.1% in feed, 4 months) is recorded as 40%; with M. leprae [2] (0.1% in feed, 6.5 months) it was 69%; with M. leprae [2] (0.1% in feed, 8.5 months) it was 77%; with M. leprae [2] (0.1% in feed, 12 months), 74%; in the series with M. leprae [2] (two months in feed, DDS 0.0001%, Rifampicin 0.001%, K-130 0.01%, Brodimoprim 0.01%, PH 22-26 0.05%) it was 0%. Also, the “M. leprae/paw, treated mice” value in the series on M. leprae [2] (0.1% in feed, 4 months (control 0.468)) is 0.283 × 10^6; with M. leprae [2] (0.1% in feed, 8.5 months (control 2.978)) it was 0.684 × 10^6; in the series with M. leprae [2] (0.1% in feed, 12 months (control 3.682)) it was 0.945 × 10^6. Also, the MIC against Mycobacterium lufu amounted to 1.3 µM (≈ 0.304 µg/mL); in [5] it was 6.2 µM (≈ 1.45 µg/mL); in [6], 12.9 µM (≈ 3.01 µg/mL); in series [8] it was 25.7 µM (≈ 6.01 µg/mL). In addition, in series [4], the toxic effects entry was “No toxic effects were observed”. Further, in the series with M. leprae [7] (50 mg/ml), the inhibition of growth at 50000 µg/mL was 30%. In addition, the inhibition of growth at 100000 µg/mL in the series with M. leprae [7] (100 mg/ml) worked out at 48%.

With `C(=NNc1ccccn1)c1ccccn1` [PH 22, pyridine-2-aldehyde-2'-pyridylhydrazone], the pIC50 in series [9] was 6.93; in [1], 5.70; in series [3], 6.52; in series [11] it was 6.82. Besides, the IC90 in [1] is 2.5 µM; in [3] it was 1.3 µM. For the same compound, the IC50 is 0.39 µg/mL in [1] (setting [15]) and 0.0556 µg/mL in series [3] (setting [15]). Besides, the MIC stood at 32 µM (≈ 6.34 µg/mL) with Mycobacterium lufu; 30 µM (≈ 5.95 µg/mL) in [10]; 29 µM (≈ 5.75 µg/mL) in series [12]; 97 µM (≈ 19.2 µg/mL) in series [5]; 77 µM (≈ 15.3 µg/mL) in series [6]; 20 µM (≈ 3.96 µg/mL) in series [8]. The LD50 in “in vivo” (rat) was greater than 2000 mg/kg.

Take `NC(=S)NN=Cc1ccccn1` [Py-2-TSC, pyridine-2-aldehyde-thiosemicarbazone, reference compound]: the LD50 is 40 mg/kg body weight in series [13] and 30 mg/kg in “in vivo” (Rat, subc., read-out: LD50). Also, the MIC with Mycobacterium lufu stood at 40 µM (≈ 7.21 µg/mL).

For the compound `NC(=S)NN=Cc1ccc(O)cn1` [5-hydroxypyridine-2-(carbox)-aldehyde-thiosemicarbazone], the gastrointestinal toxicity result in series [14] is reported as “serious gastrointestinal toxicity”.

Take `c1ccc(C(=NNc2ccccn2)c2ccccn2)cc1` [PH 22-9, 2-benzoyl pyridine-2'-pyridylhydrazone]: the pIC50 is 7.05 in series [9], 5.82 in series [1], 5.74 in series [3] and 7.01 in series [11]. Besides, the IC90 in [1] is 5.3 µM; in series [3], 2.2 µM. For the same compound, the MIC in the series with Mycobacterium lufu turned out to be 5.5 µM (≈ 1.51 µg/mL); in series [12], 73 µM (≈ 20 µg/mL); in [5], 13 µM (≈ 3.57 µg/mL); in series [6], 18.3 µM (≈ 5.02 µg/mL); in [8] it was 36.5 µM (≈ 10 µg/mL). In addition, the “in vivo treatment of lymphatic leukaemia P388” value in the series on lymphatic leukaemia P388 is on record as “ineffective”.
